Experimental data reported in paper PMC11695783 (Frontiers in Pharmacology, 2024).

System: Mycoplasma pneumoniae strain M129 (ATCC 29342)
Assay: Time-kill curves
Assay type: cell-based
Parameters: M. pneumoniae count in time-kill curve: unit not given here
Procedure: Mycoplasma pneumoniae strain M129 (ATCC 29342) was obtained from American Type Culture Collection (Manassas, VA, United States) and cultured at 37°C in the presence of 5% CO2 in the modified SP-4 liquid medium (pH 7.4) containing 2.1% (w/v) CM1166 mycoplasma broth base medium (Oxoid, Hants, United Kingdom), 20% (v/v) fetal bovine serum (FBS, Bioexplorer, CO, United States), 0.4% yeast extract (Oxoid), 0.55% (w/v) CMRL 1066 w/L-glutamine culture media powder (MyBioSource, San Diego, CA, United States), 1% D-glucose (Macklin) and 0.004% phenol red (Macklin). […] The solid medium is based on the above formula with the addition of 1% agar, and the characteristic fried egg-like colonies were used for experiments following incubation for 7 d on plates.
The tubes were incubated at 37°C in 5% CO2 for 72 h, and 200 µL of the culture was removed every 12 h for 10-fold serial dilutions. The diluted cultures were plated on plates for further culture and counted after 7 d. The experiment was repeated three times.

O=C(O)c1cn(C2CC2)c2cc(N3CCNCC3)c(F)cc2c1=O [ciprofloxacin]
M. pneumoniae count in time-kill curve (1×MIC, time 0): 7.07 | M. pneumoniae count in time-kill curve (1×MIC, time 12): 6.346 | M. pneumoniae count in time-kill curve (1×MIC, time 24): 6.462 | M. pneumoniae count in time-kill curve (1×MIC, time 36): 6.137 | M. pneumoniae count in time-kill curve (1×MIC, time 48): 6.414 | M. pneumoniae count in time-kill curve (1×MIC, time 60): 6.605 | M. pneumoniae count in time-kill curve (1×MIC, time 72): 5.901 | M. pneumoniae count in time-kill curve (2×MIC, time 0): 7.07 | M. pneumoniae count in time-kill curve (2×MIC, time 12): 6.0302 | M. pneumoniae count in time-kill curve (2×MIC, time 24): 6.128 | M. pneumoniae count in time-kill curve (2×MIC, time 36): 5.661 | M. pneumoniae count in time-kill curve (2×MIC, time 48): 5.8 | M. pneumoniae count in time-kill curve (2×MIC, time 60): 5.6841 | M. pneumoniae count in time-kill curve (2×MIC, time 72): 4.597 | M. pneumoniae count in time-kill curve (4×MIC, time 0): 7.07 | M. pneumoniae count in time-kill curve (4×MIC, time 12): 5.551 | M. pneumoniae count in time-kill curve (4×MIC, time 24): 5.334 | M. pneumoniae count in time-kill curve (4×MIC, time 36): 5.292 | M. pneumoniae count in time-kill curve (4×MIC, time 48): 5.137 | M. pneumoniae count in time-kill curve (4×MIC, time 60): 5.179 | M. pneumoniae count in time-kill curve (4×MIC, time 72): 4.3324 | M. pneumoniae count in time-kill curve (8×MIC, time 0): 7.07 | M. pneumoniae count in time-kill curve (8×MIC, time 12): 5.507 | M. pneumoniae count in time-kill curve (8×MIC, time 24): 4.574 | M. pneumoniae count in time-kill curve (8×MIC, time 36): 4.144 | M. pneumoniae count in time-kill curve (8×MIC, time 48): 4.238 | M. pneumoniae count in time-kill curve (8×MIC, time 60): 3.8395 | M. pneumoniae count in time-kill curve (8×MIC, time 72): 3.628 | M. pneumoniae count in time-kill curve (16×MIC, time 0): 7.07 | M. pneumoniae count in time-kill curve (16×MIC, time 12): 5.235 | M. pneumoniae count in time-kill curve (16×MIC, time 24): 4.279 | M. pneumoniae count in time-kill curve (16×MIC, time 36): 3.946 | M. pneumoniae count in time-kill curve (16×MIC, time 48): 3.861 | M. pneumoniae count in time-kill curve (16×MIC, time 60): 3.824 | M. pneumoniae count in time-kill curve (16×MIC, time 72): 3.354 | M. pneumoniae count in time-kill curve (32×MIC, time 0): 7.07 | M. pneumoniae count in time-kill curve (32×MIC, time 12): 4.952 | M. pneumoniae count in time-kill curve (32×MIC, time 24): 4.119 | M. pneumoniae count in time-kill curve (32×MIC, time 36): 3.694 | M. pneumoniae count in time-kill curve (32×MIC, time 48): 3.873 | M. pneumoniae count in time-kill curve (32×MIC, time 60): 3.5568 | M. pneumoniae count in time-kill curve (32×MIC, time 72): 3.233 | M. pneumoniae count in time-kill curve (64×MIC, time 0): 7.07 | M. pneumoniae count in time-kill curve (64×MIC, time 12): 5.252 | M. pneumoniae count in time-kill curve (64×MIC, time 24): 3.933 | M. pneumoniae count in time-kill curve (64×MIC, time 36): 3.756 | M. pneumoniae count in time-kill curve (64×MIC, time 48): 3.771 | M. pneumoniae count in time-kill curve (64×MIC, time 60): 3.185 | M. pneumoniae count in time-kill curve (64×MIC, time 72): 2.981
